Measured values: patent US11427567B2, “Imidazolyl pyrimidinylamine compounds as CDK2 inhibitors” (Incyte Corporation, priority 2019, dated 2022)

target: CDK2/Cyclin E1 (Homo sapiens (Human), UniProt P24941); assay: CDK2/Cyclin E1 HTRF enzyme activity assay (Example A); format: biochemical; details: 1 mM ATP
Procedure: Assays were conducted in white 384-well polystyrene plates in a final reaction volume of 8 μL. […] HTRF signals were read after 1 hour at room temperature on a PHERAstar FS plate reader (BMG Labtech). Data was analyzed with IDBS XLFit and GraphPad Prism 5.0 software using a three or four parameter dose response curve to determine IC50 for each compound.

SMILES	IC50 [nM]
Cn1cc(S(=O)(=O)N2CCC(Nc3ncc(C(F)(F)F)c(-c4ncn(C)c4Br)n3)CC2)cn1 [Example 383, 4-(5-Bromo-1-methyl-1H-imidazol-4-yl)-N-(1-((1-methyl-1H-pyrazol-4-yl)sulfonyl)piperidin-4-yl)-5-(trifluoromethyl)pyrimidin-2-amine]	≤ 50
Cc1nc(-c2nc(N[C@H]3CCN(S(C)(=O)=O)C[C@H]3F)ncc2C(F)(F)F)cn1-c1cccc(C#N)c1Cl [Example 384, 2-Chloro-3-(4-(2-(((3R,4S)-3-fluoro-1-(methylsulfonyl)piperidin-4-yl)amino)-5-(trifluoromethyl)pyrimi-din-4-yl)-2-methyl-1H-imidazol-1-yl)benzonitrile]	≤ 50
CC(C)NCc1cc(F)c(-n2cnc(-c3nc(N[C@H]4CCN(S(C)(=O)=O)C[C@H]4F)ncc3C(F)(F)F)c2)c(F)c1 [Example 386, 4-(1-(2,6-Difluoro-4-((isopropylamino)methyl)phenyl)-1H-imidazol-4-yl)-N-((3R,4S)-3-fluoro-1-(methylsulfonyl)piperidin-4-yl)-5-(trifluoromethyl)pyrimidin-2-amine]	≤ 50
Cc1nc(-c2nc(N[C@H]3CCN(S(C)(=O)=O)C[C@H]3F)ncc2C(F)(F)F)cn1-c1ccc(CN2CCN(C)CC2)cc1F [Example 387, N-((3R,4S)-3-Fluoro-1-(methylsulfonyl)piperidin-4-yl)-4-(1-(2-fluoro-4-((4-methylpiperazin-1-yl)methyl)phenyl)-2-methyl-1H-imidazol-4-yl)-5-(trifluoromethyl)pyrimidin-2-amine]	≤ 50
Cc1nc(-c2nc(N[C@H]3CCN(S(C)(=O)=O)C[C@H]3F)ncc2C(F)(F)F)cn1-c1ccc(CNC(C)C)cc1F [Example 388, N-((3R,4S)-3-Fluoro-1-(methylsulfonyl)piperidin-4-yl)-4-(1-(2-fluoro-4-((isoporopylamino)methyl)phenyl)-2-methyl-1H-imidazol-4-yl)-5-(trifluoromethyl)pyrimidin-2-amine]	≤ 50
CCNCc1ccc(-n2cc(-c3nc(N[C@H]4CCN(S(C)(=O)=O)C[C@H]4F)ncc3C(F)(F)F)nc2C)c(F)c1 [Example 389, 4-(1-(4-((Ethylamino)methyl)-2-fluorophenyl)-2-methyl-1H-imidazol-4-yl)-N-((3R,4S)-3-fluoro-1-(methylsulfonyl)piperidin-4-yl)-5-(trifluoromethyl)pyrimidin-2-amine]	≤ 50
CCNCc1cc(F)c(-n2cnc(-c3nc(N[C@@H]4CCN(S(C)(=O)=O)C[C@H]4F)ncc3C(F)(F)F)c2)c(F)c1 [Example 390, 4-(1-(4-((Ethylamino)methyl)-2,6-difluorophenyl)-1H-imidazol-4-yl)-N-((3R,4R)-3-fluoro-1-(methylsulfonyl)piperidin-4-yl)-5-(trifluoromethyl)pyrimidin-2-amine]	≤ 50
CC(C)NCc1cc(F)c(-n2cnc(-c3nc(N[C@@H]4CCN(S(C)(=O)=O)C[C@H]4F)ncc3C(F)(F)F)c2)c(F)c1 [Example 391, 4-(1-(2,6-Difluoro-4-((isopropylamino)methyl)phenyl)-1H-imidazol-4-yl)-N-((3R,4R)-3-fluoro-1-(methylsulfonyl)piperidin-4-yl)-5-(trifluoromethyl)pyrimidin-2-amine]	≤ 50
CCN1CCN(Cc2cc(F)c(-n3cnc(-c4nc(N[C@@H]5CCN(S(C)(=O)=O)C[C@H]5F)ncc4C(F)(F)F)c3)c(F)c2)CC1 [Example 392, 4-(1-(4-((4-Ethylpiperazin-1-yl)methyl)-2,6-difluorophenyl)-1H-imidazol-4-yl)-N-((3R,4R)-3-fluoro-1-(methyslulfonyl)piperidin-4-yl)-5-(trifluoromethyl)pyrimidin-2-amine]	≤ 50
CCNCc1cc(F)c(-n2cnc(-c3nc(NC4CCN(S(C)(=O)=O)CC4)ncc3C(F)(F)F)c2)c(Cl)c1 [Example 393, 4-(1-(2-Chloro-4-((ethylamino)methyl)-6-fluorophenyl)-1H-imdazol-4-yl)-N-(1-(methylsulfonyl)piperidin-4-yl)-5-(trifluoromethyl)pyrimidin-2-amine]	≤ 50
CC(C)NCc1cc(F)c(-n2cnc(-c3nc(NC4CCN(S(C)(=O)=O)CC4)ncc3C(F)(F)F)c2)c(Cl)c1 [Example 394, 4-(1-(2-Chloro-6-fluoro-4-((isopropylamino)methyl)phenyl)-1H-imidazol-4-yl)-N-(1-(methylsulfonyl)piperidin-4-yl)-5-(trifluoromethyl)pyrimidin-2-amine]	≤ 50
CS(=O)(=O)N1CCC(Nc2ncc(C(F)(F)F)c(-c3cn(-c4c(F)cc(CN5CCC5)cc4Cl)cn3)n2)CC1 [Example 395, 4-(1-(4-(Azetidin-1-ylmethyl)-2-chloro-6-fluorophenyl)-1H-imidazol-4-yl)-N-(1-(methyslulfonyl)piperidin-4-yl)-5-(trifluoromethyl)pyrimidin-2-amine]	≤ 50
CCN1CCN(Cc2cc(F)c(-n3cnc(-c4nc(NC5CCN(S(C)(=O)=O)CC5)ncc4C(F)(F)F)c3)c(Cl)c2)CC1 [Example 396, 4-(1-(2-Chloro-4-((4-ethylpiperazin-1-yl)methyll)-6-fluorophenyl)-1H-imidazol-4-yl)-N-(1-(methylsulfonyl)piperidin-4-yl)-5-(trifluoromethyl)pyrimidin-2-amine]	≤ 50
C[C@@]1(O)CCN(Cc2ccc(-n3cnc(-c4nc(N[C@@H]5CCN(S(C)(=O)=O)C[C@H]5F)ncc4C(F)(F)F)c3)c(Cl)c2)C1 [Example 397, (R)-1-(3-Chloro-4-(4-(2-(((3R,4R)-3-fluoro-1-(methylsulfonyl)piperidin-4-yl)amino)-5-(trifluoromethyl)pyrimidin-4-yl)-1H-imidazol-1-yl)benzyl)-3-methylpyrrolidin-3-ol]	≤ 50
CCN1CCN(Cc2ccc(-n3cnc(-c4nc(N[C@@H]5CCN(S(C)(=O)=O)C[C@H]5F)ncc4C(F)(F)F)c3)c(Cl)c2)CC1 [Example 398, 4-(1-(2-Chloro-4-((4-ethylpiperazin-1-yl)methyl)phenyl)-1H-imidazol-4-yl)-N-((3R,4R)-3-fluoro-1-(methylsulfonyl)piperidin-4-yl)-5-(trifluoromethyl)pyrimidin-2-amine]	≤ 50
CS(=O)(=O)N1CC[C@@H](Nc2ncc(C(F)(F)F)c(-c3cn(-c4ccc(CN5CCC5)cc4Cl)cn3)n2)[C@H](F)C1 [Example 399, 4-(1-(4-(Azetidin-1-ylmethyl)-2-chlorophenyl)-1H-imidazol-4-yl)-N-((3R,4R)-3-fluoro-1-(methylsulfonyl)piperidin-4-yl)-5-(trifluoromethyl)pyrimidin-2-amine]	≤ 50
CC(C)NCc1ccc(-n2cnc(-c3nc(N[C@@H]4CCN(S(C)(=O)=O)C[C@H]4F)ncc3C(F)(F)F)c2)c(Cl)c1 [Example 400, 4-(1-(2-Chloro-4-((isopropylamino)methyl)phenyl)-1H-imidazol-4-yl)-N-((3R,4R)-3-fluoro-1-(methylsulfonyl)piperidin-4-yl)-5-(trifluoromethyl)pyrimidin-2-amine]	≤ 50
CCNCc1ccc(-n2cnc(-c3nc(N[C@@H]4CCN(S(C)(=O)=O)C[C@H]4F)ncc3C(F)(F)F)c2)c(Cl)c1 [Example 401]	≤ 50
C[C@@]1(O)CCN(Cc2cc(F)c(-n3cnc(-c4nc(N[C@@H]5CCN(S(C)(=O)=O)C[C@H]5F)ncc4C(F)(F)F)c3)c(Cl)c2)C1 [Example 402, (R)-1-(3-Chloro-5-fluoro-4-(4-(2-(((3R,4R)-3-fluoro-1-(methylsulfonyl)piperidin-4-yl)amino)-5-(trifluoromethyl)pyrimidin-4-yl)-1H-imidazol-1-yl)benzyl)-3-methylpyrrolidin-3-ol]	≤ 50
CCN1CCN(Cc2cc(F)c(-n3cnc(-c4nc(N[C@@H]5CCN(S(C)(=O)=O)C[C@H]5F)ncc4C(F)(F)F)c3)c(Cl)c2)CC1 [Example 403, 4-(1-(2-Chloro-4-((4-ethylpiperazin-1-yl)methyl)-6-fluorophenyl)-1H-imidazol-4-yl)-N-((3R,4R)-3-fluoro-1-(methylsulfonyl)piperidin-4-yl)-5-(trifluoromethyl)pyrimidin-2-amine]	≤ 50
CS(=O)(=O)N1CC[C@@H](Nc2ncc(C(F)(F)F)c(-c3cn(-c4c(F)cc(CN5CCC5)cc4Cl)cn3)n2)[C@H](F)C1 [Example 404, 4-(1-(4-(Azetidin-1-ylmethyl)-2-chloro-6-fluorophenyl)-1H-imidazol-4-yl)-N-((3R,4R)-3-fluoro-1-(methylsulfonyl)piperidin-4-yl)-5-(trifluoromethyl)pyrimidin-2-amine]	≤ 50
CC(C)NCc1cc(F)c(-n2cnc(-c3nc(N[C@@H]4CCN(S(C)(=O)=O)C[C@H]4F)ncc3C(F)(F)F)c2)c(Cl)c1 [Example 405, 4-(1-(2-Chloro-6-fluoro-4-((isopropylamino)methyl)phenyl)-1H-imidazol-4-yl)-N-((3R,4R)-3-fluoro-1-(methylsulfonyl)piperidin-4-yl)-5-(trifluoromethyl)pyrimidin-2-amine]	≤ 50
CCNCc1cc(F)c(-n2cnc(-c3nc(N[C@@H]4CCN(S(C)(=O)=O)C[C@H]4F)ncc3C(F)(F)F)c2)c(Cl)c1 [Example 406, 4-(1-(2-Chloro-4-((ethylamino)methyl)-6-fluorophenyl)-1H-imidazol-4-yl)-N-((3R,4R)-3-fluoro-1-(methylsulfonyl)piperidin-4-yl)-5-(trifluoromethyl)pyrimidin-2-amine]	≤ 50
Cc1nc(-c2nc(N[C@H]3CCN(S(C)(=O)=O)C[C@H]3F)ncc2C(F)(F)F)cn1-c1ccc(CN2CCCC2)cc1F [Example 407, N-((3R,4S)-3-Fluoro-1-(methylsulfonyl)piperidin-4-yl)-4-(1-(2-fluoro-4-(pyrrolidin-1-ylmethyl)phenyl)-2-methyl-1H-imidazol-4-yl)-5-(trifluoromethyl)pyrimidin-2-amine]	≤ 50
Cc1nc(-c2nc(N[C@H]3CCN(S(C)(=O)=O)C[C@H]3F)ncc2C(F)(F)F)cn1-c1ccc(CNC2CC2)cc1F [Example 408]	≤ 50
